# The source made the active and inactive calls. The calls are words filed in the database; no cut-off is given here.
# How the values were obtained:
# [1] = target: T1, Protein cereblon/E3 ubiquitin-protein ligase RING2 (Homo sapiens, UniProt Q96SW2+Q99496); test: PROTAC activity at CRBN/RING1B in human K562 cells assessed as degradation of RING1B protein expression at 0.1 to 10 uM incubated for 24 hrs by Western blotting analysis; type: cell-based; settings: dose 0.1-10 µM
# [2] = target: Protein cereblon/Histone-lysine N-methyltransferase EZH2 (Homo sapiens) (UniProt Q15910+Q96SW2); test: PROTAC activity at CRBN/EZH2 in human K562 cells assessed as degradation of EZH2 protein expression at 0.1 to 10 uM incubated for 24 hrs by Western blotting analysis; type: cell-based; settings: dose 0.1-10 µM
# [3] = test system: K562; test: Induction of PRC1 degradation in human K562 cells assessed as reduction of H2AK119ub chromatin mark at 0.1 to 10 uM incubated for 24 hrs by Western blotting analysis; type: cell-based; settings: dose 0.1-10 µM
# [4] = test system: K562; test: Induction of PRC2 degradation in human K562 cells assessed as reduction of H3K27me3 chromatin mark at 0.1 to 10 uM incubated for 24 hrs by Western blotting analysis; type: cell-based; settings: dose 0.1-10 µM
# [5] = target: Protein cereblon/Polycomb protein EED (Homo sapiens, UniProt O75530+Q96SW2); test: PROTAC activity at CRBN/EED in human K562 cells assessed as degradation of EED protein expression at 0.1 to 10 uM incubated for 24 hrs by Western blotting analysis; type: cell-based; settings: dose 0.1-10 µM
# [6] = target: Protein cereblon/Polycomb complex protein BMI-1 (Homo sapiens, UniProt Q96SW2+P35226); test: PROTAC activity at […] in human K562 cells assessed as degradation of BMI1 protein expression at 0.1 to 10 uM incubated for 24 hrs by Western blotting analysis; type: cell-based; settings: dose 0.1-10 µM
# [7] = target: Protein cereblon/Polycomb protein SUZ12 (Homo sapiens) (UniProt Q15022+Q96SW2); test: PROTAC activity at CRBN/SUZ12 in human K562 cells assessed as degradation of SUZ12 protein expression at 0.1 to 10 uM incubated for 24 hrs by Western blotting analysis; type: cell-based; settings: dose 0.1-10 µM
# [8] = target: T1, Protein cereblon/E3 ubiquitin-protein ligase RING2; test: PROTAC activity at CRBN/RING1B in human K562 cells assessed as degradation of RING1B protein expression at 1 to 10 uM incubated for 24 hrs by Western blotting analysis; type: cell-based; settings: dose 1-10 µM
# [9] = target: T2, von Hippel-Lindau disease tumor suppressor/Polycomb complex protein BMI-1 (Homo sapiens) (UniProt P40337+P35226); test: PROTAC activity at […] in human K562 cells assessed as degradation of BMI1 protein expression at 1 to 10 uM incubated for 24 hrs by Western blotting analysis; type: cell-based; settings: dose 1-10 µM
# [10] = test system: K562; test: Induction of PRC2 degradation in human K562 cells assessed as reduction of H3K27me3 chromatin mark at 1 to 10 uM incubated for 24 hrs by Western blotting analysis; type: cell-based; settings: dose 1-10 µM
# [11] = test system: K562; test: Induction of PRC1 degradation in human K562 cells assessed as reduction of H2AK119ub chromatin mark at 1 to 10 uM incubated for 24 hrs by Western blotting analysis; type: cell-based; settings: dose 1-10 µM
# [12] = test system: K562; test: Antiproliferative activity against human K562 cells assessed as cell growth inhibition incubated for 7 days by WST-8 assay; type: functional; settings: time 7.0 day
# [13] = test system: PC-3M; test: Induction of PRC1 degradation in human PC-3M cells assessed as reduction of H2AK119ub chromatin mark at 0.2 to 5 uM incubated for 24 hrs by Western blotting analysis; type: cell-based; settings: dose 0.2-5 µM
# [14] = target: T2, von Hippel-Lindau disease tumor suppressor/Polycomb complex protein BMI-1 (Homo sapiens); test: PROTAC activity at […] in human 786-0 cells with defective VHL assessed as degradation of BMI1 protein expression at 10 uM incubated for 24 hrs by Western blotting analysis; type: cell-based
# [15] = test system: MDA-MB-468; test: Induction of PRC1 degradation in human MDA-MB-468 cells assessed as reduction of H2AK119ub chromatin mark at 0.2 to 5 uM incubated for 24 hrs by Western blotting analysis; type: cell-based; settings: dose 0.2-5 µM
# [16] = test system: MDA-MB-468; test: Induction of PRC2 degradation in human MDA-MB-468 cells assessed as reduction of H3K27me3 chromatin mark at 0.2 to 5 uM incubated for 24 hrs by Western blotting analysis; type: cell-based; settings: dose 0.2-5 µM
# [17] = test system: K562; test: Antiproliferative activity against human K562 cells assessed as increase in HoxA mRNA expression at 10 uM incubated for 24 hrs by RT-qPCR analysis; type: functional, cell-based
# [18] = test system: PC-3M; test: Induction of PRC2 degradation in human PC-3M cells assessed as reduction of H3K27me3 chromatin mark at 0.2 to 5 uM incubated for 24 hrs by Western blotting analysis; type: cell-based; settings: dose 0.2-5 µM
# [19] = target: T1, Protein cereblon/E3 ubiquitin-protein ligase RING2; test: PROTAC activity at CRBN/RING1B in human 786-0 cells with defective VHL assessed as degradation of RING1B protein expression at 10 uM incubated for 24 hrs by Western blotting analysis; type: cell-based
# [20] = test system: K562; test: Antiproliferative activity against human K562 cells assessed as increase in HoxD mRNA expression at 10 uM incubated for 24 hrs by RT-qPCR analysis; type: functional, cell-based
# [21] = target: von Hippel-Lindau disease tumor suppressor/Histone-lysine N-methyltransferase EZH2 (Homo sapiens, UniProt Q15910+P40337); test: PROTAC activity at VHL/EZH2 in human KARPAS-422 cells assessed as degradation of EZH2 protein expression by Western blotting analysis; type: cell-based
# [22] = target: von Hippel-Lindau disease tumor suppressor/Polycomb protein EED (Homo sapiens, UniProt O75530+P40337); test: PROTAC activity at VHL/EED in human KARPAS-422 cells assessed as degradation of EED protein expression by Western blotting analysis; type: cell-based
# [23] = test system: 786-0; test: Induction of PRC1 degradation in human 786-0 cells with defective VHL assessed as reduction of H2AK119ub chromatin mark at 10 uM incubated for 24 hrs by Western blotting analysis; type: cell-based
# [24] = target: Polycomb protein EED (Homo sapiens, UniProt O75530); test: Binding affinity to EED (75 to 441 residues) (unknown origin) expressed in Escherichia coli BL21 (DE3) assessed as dissociation constant by isothermal titration calorimetry
# [25] = test system: 786-0; test: Antiproliferative activity against human 786-0 cells assessed as inhibition of cell growth at 0.5 to 30 uM incubated for 7 days by WST-8 assay; type: functional, cell-based; settings: dose 0.5-30 µM, time 7.0 day
# [26] = test system: 786-0; test: Induction of PRC2 degradation in human 786-0 cells with defective VHL assessed as reduction of H3K27me3 chromatin mark at 10 uM incubated for 24 hrs by Western blotting analysis; type: cell-based
# Sequence of Protein cereblon/Histone-lysine N-methyltransferase EZH2 (Homo sapiens) (Q15910 whole entry, looked up): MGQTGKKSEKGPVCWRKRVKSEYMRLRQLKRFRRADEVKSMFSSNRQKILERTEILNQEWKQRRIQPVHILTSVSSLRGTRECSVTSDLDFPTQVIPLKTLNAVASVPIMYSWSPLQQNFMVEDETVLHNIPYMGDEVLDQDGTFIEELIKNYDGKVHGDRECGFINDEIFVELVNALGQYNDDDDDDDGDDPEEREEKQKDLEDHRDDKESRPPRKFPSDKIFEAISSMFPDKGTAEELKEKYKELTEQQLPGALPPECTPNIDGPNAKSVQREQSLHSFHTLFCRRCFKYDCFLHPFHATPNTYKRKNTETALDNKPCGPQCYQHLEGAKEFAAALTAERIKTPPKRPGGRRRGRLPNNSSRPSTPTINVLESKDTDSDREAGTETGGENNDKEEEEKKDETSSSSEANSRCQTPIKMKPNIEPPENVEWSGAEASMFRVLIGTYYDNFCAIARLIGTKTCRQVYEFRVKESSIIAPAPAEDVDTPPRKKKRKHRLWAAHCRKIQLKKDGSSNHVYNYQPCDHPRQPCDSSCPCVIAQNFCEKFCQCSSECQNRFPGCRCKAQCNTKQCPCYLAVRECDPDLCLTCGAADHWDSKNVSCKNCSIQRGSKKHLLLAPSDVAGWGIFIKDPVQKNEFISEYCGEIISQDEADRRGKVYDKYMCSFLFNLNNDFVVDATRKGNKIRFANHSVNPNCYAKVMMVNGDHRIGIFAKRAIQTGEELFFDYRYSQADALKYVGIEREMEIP
# Sequence of Protein cereblon/Histone-lysine N-methyltransferase EZH2 (Homo sapiens) (Q96SW2 whole entry, looked up): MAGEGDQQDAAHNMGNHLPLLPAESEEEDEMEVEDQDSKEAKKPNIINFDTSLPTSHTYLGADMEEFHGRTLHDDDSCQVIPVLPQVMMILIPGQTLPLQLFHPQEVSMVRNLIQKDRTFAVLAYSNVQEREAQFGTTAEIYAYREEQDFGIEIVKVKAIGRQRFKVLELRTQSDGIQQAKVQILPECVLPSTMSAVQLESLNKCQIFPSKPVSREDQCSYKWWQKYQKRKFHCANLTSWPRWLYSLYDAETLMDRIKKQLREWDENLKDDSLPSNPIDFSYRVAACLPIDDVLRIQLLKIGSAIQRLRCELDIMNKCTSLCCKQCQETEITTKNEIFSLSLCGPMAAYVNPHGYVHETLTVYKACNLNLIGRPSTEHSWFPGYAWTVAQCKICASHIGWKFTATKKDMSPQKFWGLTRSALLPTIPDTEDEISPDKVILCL
# Sequence of Protein cereblon/Polycomb complex protein BMI-1 (P35226 whole entry, looked up): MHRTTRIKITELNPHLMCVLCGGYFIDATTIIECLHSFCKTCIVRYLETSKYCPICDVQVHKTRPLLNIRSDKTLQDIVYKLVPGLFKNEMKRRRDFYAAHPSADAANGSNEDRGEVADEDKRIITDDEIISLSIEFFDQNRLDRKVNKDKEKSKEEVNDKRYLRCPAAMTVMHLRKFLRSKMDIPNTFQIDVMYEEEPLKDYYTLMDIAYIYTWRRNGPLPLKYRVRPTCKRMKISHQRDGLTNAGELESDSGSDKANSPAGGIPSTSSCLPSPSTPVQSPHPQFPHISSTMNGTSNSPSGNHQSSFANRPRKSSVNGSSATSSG
# Sequence of Protein cereblon/Polycomb complex protein BMI-1 (Q96SW2 whole entry, looked up): as the sequence (Q96SW2 whole entry, looked up) above
# T2 sequence (P35226 whole entry, looked up): as the sequence (P35226 whole entry, looked up) above
# T2 sequence (P40337 whole entry, looked up): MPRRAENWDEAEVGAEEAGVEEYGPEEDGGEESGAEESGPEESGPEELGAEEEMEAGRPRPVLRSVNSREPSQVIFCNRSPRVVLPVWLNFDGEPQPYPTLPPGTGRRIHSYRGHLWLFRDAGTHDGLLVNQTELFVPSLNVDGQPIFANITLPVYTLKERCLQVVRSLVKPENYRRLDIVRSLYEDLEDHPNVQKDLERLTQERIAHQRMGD
# T1 sequence (Q96SW2 whole entry): as the sequence (Q96SW2 whole entry, looked up) above
# T1 sequence (Q99496 2-336 partner limits assumed): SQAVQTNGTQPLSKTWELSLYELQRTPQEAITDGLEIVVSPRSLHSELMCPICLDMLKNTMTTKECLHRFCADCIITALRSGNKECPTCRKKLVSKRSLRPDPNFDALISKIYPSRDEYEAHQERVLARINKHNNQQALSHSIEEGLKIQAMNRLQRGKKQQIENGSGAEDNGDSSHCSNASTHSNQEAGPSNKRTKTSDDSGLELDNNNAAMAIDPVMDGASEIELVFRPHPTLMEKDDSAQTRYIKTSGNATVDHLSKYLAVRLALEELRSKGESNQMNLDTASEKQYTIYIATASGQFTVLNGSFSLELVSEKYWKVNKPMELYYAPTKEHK
# Sequence of Protein cereblon/Polycomb protein SUZ12 (Homo sapiens) (Q15022 whole entry, looked up): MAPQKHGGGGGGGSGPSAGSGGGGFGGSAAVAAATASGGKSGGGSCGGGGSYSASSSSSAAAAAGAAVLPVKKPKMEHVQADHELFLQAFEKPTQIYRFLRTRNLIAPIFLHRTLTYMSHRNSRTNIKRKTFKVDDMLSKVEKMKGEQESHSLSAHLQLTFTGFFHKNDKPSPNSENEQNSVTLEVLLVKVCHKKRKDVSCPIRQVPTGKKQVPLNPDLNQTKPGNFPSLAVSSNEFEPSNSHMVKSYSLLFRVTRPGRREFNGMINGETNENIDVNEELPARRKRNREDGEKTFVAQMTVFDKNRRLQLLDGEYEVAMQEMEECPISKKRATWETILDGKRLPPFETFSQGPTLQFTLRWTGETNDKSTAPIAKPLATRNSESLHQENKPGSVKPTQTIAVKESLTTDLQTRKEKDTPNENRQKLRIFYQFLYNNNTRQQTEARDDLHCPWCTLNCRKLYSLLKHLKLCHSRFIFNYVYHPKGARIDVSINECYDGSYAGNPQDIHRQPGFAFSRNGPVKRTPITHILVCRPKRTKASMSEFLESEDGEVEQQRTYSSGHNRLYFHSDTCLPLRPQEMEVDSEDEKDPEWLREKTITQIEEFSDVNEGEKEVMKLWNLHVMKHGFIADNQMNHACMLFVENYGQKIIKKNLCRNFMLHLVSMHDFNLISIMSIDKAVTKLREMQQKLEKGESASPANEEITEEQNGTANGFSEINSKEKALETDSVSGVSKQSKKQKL
# Sequence of Protein cereblon/Polycomb protein SUZ12 (Homo sapiens) (Q96SW2 whole entry, looked up): as the sequence (Q96SW2 whole entry, looked up) above
# Sequence of Protein cereblon/Polycomb protein EED (O75530 2-441 limits assumed): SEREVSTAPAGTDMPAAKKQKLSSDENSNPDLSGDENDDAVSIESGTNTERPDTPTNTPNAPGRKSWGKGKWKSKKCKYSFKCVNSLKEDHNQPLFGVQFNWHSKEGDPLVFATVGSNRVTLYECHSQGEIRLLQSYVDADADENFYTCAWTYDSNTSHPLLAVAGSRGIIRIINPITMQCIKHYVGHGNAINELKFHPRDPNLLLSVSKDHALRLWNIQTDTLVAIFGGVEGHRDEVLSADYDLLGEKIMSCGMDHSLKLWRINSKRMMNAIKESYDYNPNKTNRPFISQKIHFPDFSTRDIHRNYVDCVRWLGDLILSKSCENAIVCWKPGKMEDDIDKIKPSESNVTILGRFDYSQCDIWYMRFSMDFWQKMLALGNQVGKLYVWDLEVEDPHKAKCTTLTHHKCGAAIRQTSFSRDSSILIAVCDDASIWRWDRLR
# Sequence of Protein cereblon/Polycomb protein EED (Q96SW2 whole entry partner): as the sequence (Q96SW2 whole entry, looked up) above
# Sequence of von Hippel-Lindau disease tumor suppressor/Histone-lysine N-methyltransferase EZH2 (Q15910 whole entry): as the sequence (Q15910 whole entry, looked up) above
# Sequence of von Hippel-Lindau disease tumor suppressor/Histone-lysine N-methyltransferase EZH2 (P40337 whole entry): as the sequence (P40337 whole entry, looked up) above
# Sequence of von Hippel-Lindau disease tumor suppressor/Polycomb protein EED (O75530 whole entry): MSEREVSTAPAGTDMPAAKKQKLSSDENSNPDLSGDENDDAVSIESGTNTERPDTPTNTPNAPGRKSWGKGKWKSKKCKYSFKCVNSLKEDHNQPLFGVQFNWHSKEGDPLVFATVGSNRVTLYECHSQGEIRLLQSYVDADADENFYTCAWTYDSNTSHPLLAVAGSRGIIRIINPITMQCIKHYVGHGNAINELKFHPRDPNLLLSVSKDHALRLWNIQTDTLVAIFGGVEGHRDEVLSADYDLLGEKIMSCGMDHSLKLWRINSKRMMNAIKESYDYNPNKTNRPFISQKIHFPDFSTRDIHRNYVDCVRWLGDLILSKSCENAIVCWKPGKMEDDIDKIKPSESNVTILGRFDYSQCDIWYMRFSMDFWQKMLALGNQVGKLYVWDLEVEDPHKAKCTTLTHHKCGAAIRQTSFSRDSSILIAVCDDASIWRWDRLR
# Sequence of von Hippel-Lindau disease tumor suppressor/Polycomb protein EED (P40337 whole entry): as the sequence (P40337 whole entry, looked up) above
# Sequence of Polycomb protein EED (O75530 whole entry, the tested form may be a part): as the sequence (O75530 whole entry) above
Structure (SMILES),Activity [1],Activity [2],Activity [3],Activity [4],Activity [5],Activity [6],Activity [7],further results
O=C(CCCCNc1cccc2c1C(=O)N(C1CCC(=O)NC1=O)C2=O)NCCCCN1CCN(c2ccc(-c3cnc(NCc4ccco4)n4cnnc34)cc2)CC1 (stereo unspecified),inactive,inactive,inactive,inactive,inactive,inactive,inactive,
O=C(CCCNc1cccc2c1C(=O)N(C1CCC(=O)NC1=O)C2=O)NCCCCN1CCN(c2ccc(-c3cnc(NCc4ccco4)n4cnnc34)cc2)CC1 (stereo unspecified),inactive,inactive,inactive,inactive,inactive,inactive,inactive,
O=C(CCOCCOCCOCCOCCNc1cccc2c1C(=O)N(C1CCC(=O)NC1=O)C2=O)NCCCCN1CCN(c2ccc(-c3cnc(NCc4ccco4)n4cnnc34)cc2)CC1 (stereo unspecified),inactive,inactive,inactive,inactive,inactive,inactive,inactive,
O=C(CCNc1cccc2c1C(=O)N(C1CCC(=O)NC1=O)C2=O)NCCCCN1CCN(c2ccc(-c3cnc(NCc4ccco4)n4cnnc34)cc2)CC1 (stereo unspecified),inactive,inactive,inactive,inactive,inactive,inactive,inactive,
O=C(CCOCCNc1cccc2c1C(=O)N(C1CCC(=O)NC1=O)C2=O)NCCCCN1CCN(c2ccc(-c3cnc(NCc4ccco4)n4cnnc34)cc2)CC1 (stereo unspecified),inactive,inactive,inactive,inactive,inactive,inactive,inactive,
Cc1ncsc1-c1ccc(CNC(=O)[C@@H]2C[C@@H](O)CN2C(=O)[C@@H](NC(=O)CCCNC(=O)c2ccc(-c3cnc(NCc4ccco4)n4cnnc34)cc2)C(C)(C)C)cc1,,,,,,,,Activity [8]: inactive; Activity [9]: inactive; Activity [10]: Active; Activity [11]: inactive; Activity [12]: inactive
O=C(CCOCCOCCNc1cccc2c1C(=O)N(C1CCC(=O)NC1=O)C2=O)NCCCCN1CCN(c2ccc(-c3cnc(NCc4ccco4)n4cnnc34)cc2)CC1 (stereo unspecified),inactive,Active,inactive,Active,Active,inactive,Active,
CS(=O)(=O)c1ccc(-c2cnc(NCc3ccco3)n3cnnc23)cc1,,,,,,,,Activity [13]: inactive; Activity [8]: inactive; Activity [14]: inactive; Activity [15]: inactive; Activity [9]: inactive; Activity [10]: Active; Activity [16]: Active; Activity [17]: inactive; Activity [18]: Active; Activity [19]: inactive; Activity [20]: inactive; Activity [12]: inactive
Cc1nc(CCC(=O)NCCCC(=O)N[C@H](C(=O)N2C[C@H](O)C[C@H]2C(=O)NCc2ccc(-c3scnc3C)cc2)C(C)(C)C)ccc1-c1cnc(NCc2c(F)ccc3c2CCO3)n2cnnc12,,,,,,,,DC50 [21]: < 1000 nM; DC50 [22]: < 120 nM
O=C(CCOCCOCCOCCNc1cccc2c1C(=O)N(C1CCC(=O)NC1=O)C2=O)NCCCCN1CCN(c2ccc(-c3cnc(NCc4ccco4)n4cnnc34)cc2)CC1 (stereo unspecified),inactive,inactive,inactive,inactive,inactive,inactive,inactive,
O=C(CCCCCNc1cccc2c1C(=O)N(C1CCC(=O)NC1=O)C2=O)NCCCCN1CCN(c2ccc(-c3cnc(NCc4ccco4)n4cnnc34)cc2)CC1 (stereo unspecified),inactive,inactive,inactive,inactive,inactive,inactive,inactive,
Cc1ncsc1-c1ccc(CNC(=O)[C@@H]2C[C@@H](O)CN2C(=O)[C@@H](NC(=O)CCCCCCNC(=O)CCCCN2CCN(c3ccc(-c4cnc(NCc5ccco5)n5cnnc45)cc3)CC2)C(C)(C)C)cc1,,,,,,,,Activity [14]: inactive; Activity [23]: Active; Kd [24]: 3 µM; Activity [25]: inactive; Activity [26]: Active; Activity [19]: inactive

# Reference: ChEMBL document CHEMBL5543147, “Discovery and Characterization of a Novel Cereblon-Recruiting PRC1 Bridged PROTAC Degrader” (J Med Chem, 2024)
